In patent US7737182B2, “Pharmaceuticals for xerosis” (Taisho Pharmaceutical Co., Ltd., priority 2001, dated 2010):

Legend:
[1] = system: BALB/c male mice; assay: Mouse skin's barrier function, treatment test, TEWL (Test Example 5); assay type: in vivo; settings: barrier destroyed with acetone/diethyl ether; 0.01% in ethanol, 100 μL, once a day for 2 days
Method: Six-week-old BALB/c male mice in groups of eight were shaven in a rostral dorsolateral area of 4 cm^2 (2 cm×2 cm) with electric clippers and the shaven area was covered for 60 seconds with an absorbent cotton (2 cm×2 cm) impregnated with a 1:1 liquid mixture of acetone and diethyl ether. This treatment for destroying the skin's barrier function was performed for 3 consecutive days on once-a-day basis. Starting on the day next to completion of the treatment for barrier destruction at day 3, a solvent (ethanol, 100 μL) or a drug dissolved in the solvent (compound No. 7, PGD2, PGF2α, or PGE1, all being at 0.01% in an amount of 100 μL) was applied to the barrier destroyed site for 2 days on once-a-day basis. On the day next to the second application of the solvent or drug, the transepidermal water loss (TEWL) at the same site was measured with Tewameter (TM210 of Courage & Khazawa, Germany) to evaluate the drug's action.

[2] = system: BALB/c male mice; assay: Mouse skin's barrier function, preventive test, TEWL (Test Example 6); assay type: in vivo; settings: cohabitation with dermatitic NC/Nga mice; 0.01% in ethanol, 100 μL, once a day for 7 days
Method: Six-week-old BALB/c male mice in groups of six were shaven in a rostral dorsolateral area of 4 cm^2 (2 cm×2 cm) with electric clippers and kept in the same cage as NC/Nga mice that had developed dermatitis. From the day next to the start of cohabitation, a solvent (ethanol, 100 μL) or a drug dissolved in the solvent (compound No. 7, PGD2, PGF2α, or PGE1, all being at 0.01% in an amount of 100 μL) was applied to the shaven site for 7 days on once-a-day basis.
On the day next to the seventh application of the solvent or drug, the transepidermal water loss (TEWL) at the same site was measured with Tewameter (TM210 of Courage & Khazawa, Germany) to evaluate the drug's action, with the solvent-applied group being used as the control group.

[3] = system: Fifty-week-old BALB/c male mice; assay: Aged mouse skin's barrier function, treatment test, TEWL (Test Example 7); assay type: in vivo; settings: 50-week-old mice; 0.0001% in ethanol, 200 μL, once a day for 3 days
Method: Fifty-week-old BALB/c male mice (eight in each group) were shaven in a rostral dorsolateral area of 4 cm^2 (2 cm×2 cm) with electric clippers. Starting on the next day, a solvent (ethanol, 200 μL) or a drug dissolved in the solvent (compound No. 7 or PGD2, each being at 0.0001% in an amount of 200 μL) was applied to the shaven site for 3 days on once-a-day basis.
On the day next to the third application of the solvent or drug, TEWL at the same site was measured with Tewameter (TM210 of Courage & Khazawa, Germany) to evaluate the drug's action.

[4] = biological target: T1, prostaglandin D receptor (Homo sapiens, UniProt Q13258); assay: Antagonism by BW A868C of the suppression of ADP-induced human platelet aggregation; assay type: cell-based; settings: final concentration 95.7 nmol/L, human PRP, ADP 3 μmol/L
T1 construct: separate the supernatant (PRP, or platelet-rich plasma); endogenous in cells; host or cells: human platelets (platelet-rich plasma from healthy male donors)
T1 sequence (Q13258 1-359): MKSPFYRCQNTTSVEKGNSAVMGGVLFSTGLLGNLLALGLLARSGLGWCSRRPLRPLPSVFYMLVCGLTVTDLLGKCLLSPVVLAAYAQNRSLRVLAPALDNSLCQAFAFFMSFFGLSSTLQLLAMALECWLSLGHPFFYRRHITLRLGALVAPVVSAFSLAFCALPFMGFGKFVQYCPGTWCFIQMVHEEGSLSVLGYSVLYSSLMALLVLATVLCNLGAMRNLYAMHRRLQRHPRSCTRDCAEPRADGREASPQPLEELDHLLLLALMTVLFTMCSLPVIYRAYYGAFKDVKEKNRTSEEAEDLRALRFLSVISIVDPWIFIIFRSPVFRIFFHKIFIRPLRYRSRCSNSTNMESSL
Method: The prostaglandin D receptor selective antagonist used in the test was ((+/−)-3-benzyl-5-(6-carboxyhexyl)-1-(2-cyclohexyl-2-hydroxyethylamino)-hydantoin) (hereunder designated BW A868C) (Sigma-Aldrich Japan K.K.)
BW A868C was diluted with ethanol to final concentrations of 0.03 μmol/L, 0.1 μmol/L, 0.3 μmol/L, 1 μmol/L, 3 μmol/L and 10 μmol/L.
Compound No. 7 and PGD2 were diluted with ethanol to 287 nmol/L and 300 nmol/L, respectively, for subsequent use.
Blood was taken from the cubital veins of human healthy males and sampled into a tube containing 3.13% sodium citrate. The blood sample was centrifuged at 1,000 rpm for 10 minutes at 20° C. to separate the supernatant (PRP, or platelet-rich plasma) and the residue was further centrifuged at 3,000 rpm for 10 minutes at 20° C. to separate the supernatant (PPP, or platelet-poor plasma). The platelet count of PRP was appropriately diluted with PPP to 30×10^4 platelets/μL for subsequent use.
Platelet aggregation was measured with a platelet aggregation measuring instrument (PAM-8C; MC MEDICAL Co., LTD.) by the Born method (Nature, vol. 194, p. 927, 1962). A portion (273 μL) of PRP (for the BW A868C groups, 1 μL of BW A868C was added at varying concentrations) was preincubated at 37° C. for 3 minutes with stirring at 1,000 rpm. After the preincubation, 1 μL of ethanol or a test substance (compound No. 7: final concentration at 95.7 nmol/L; PGD2: final concentration at 1000 nmol/L) was added and the mixture was incubated at 37° C. for 3 minutes with stirring at 1000 rpm. After the incubation, 25 μL of ADP (final concentration at 3 μmol/L) was added to induce platelet aggregation and a maximum percent aggregation for 5 minutes was measured.

[5] = system: NC/Nga mice manifesting atopic dermatitis; assay: Spontaneous itch-evoked scratching behavior of NC mice (Test Example 1); assay type: in vivo
Method: About 20-week old NC/Nga mice each weighing about 30 g and manifesting atopic dermatitis were purchased from SLC and subjected to the following experiment. A magnet was buried in both hind paws of each mouse and by detecting its magnetism, the movement of the paws was measured with an itch measuring system (product of Neuroscience; when the mouse makes an action, the magnets move accordingly and a current flows through the coil; the moving magnets cause a change in the current, which is detected, measured and analyzed). Among the scratching actions, those lasting 1.5 seconds or longer were considered itch-evoked and their number was counted continuously. […] The subsequent 24-hr itch-evoked scratching behavior was measured and the number of itch-evoked scratchings after drug administration was compared with the initial count. The experimental data was processed to calculate the percent itch suppression on the basis of the total 24-hr itch-evoked scratching counts before and after drug application. For significance testing, the itch-evoked scratching counts that were obtained before and after drug application from individual animals in each group treated with a specific concentration of drug were processed by a paired t-test. Percent itch suppression (%)=(itch-evoked scratching count before drug application−itch-evoked scratching count after drug application)×100/itch-evoked scratching count before drug application (Results)

O=C(O)CSCCCC[C@@H]1[C@@H](C#C[C@@H](O)C2CCCCC2)[C@H](O)C[C@H]1Cl [Compound No. 7]
transepidermal water loss (TEWL) compared to the solvent-applied control group [1]: significant decrease in TEWL
transepidermal water loss (TEWL) compared to the control group [2]: significant decrease in TEWL
transepidermal water loss (TEWL) compared to the control group [3]: significant decrease in TEWL
platelet aggregation suppressing action compared with control group (ethanol) [4]: significant platelet aggregation suppressing action
Inhibition rate (%) (percent itch suppression) ([5]; concentration 0.000001% in 100% ethanol, 0.2 ml/mouse on dorsal skin, 24-hr scratching counts before vs after): 43.26%
Efficacy (significance, paired t-test) ([5]; concentration 0.000001%, scratching counts before vs after application): ** (**: P < 0.01)
